From patent publication US10633407B2, “14-membered ketolides and methods of their preparation and use” (President and Fellows of Harvard College, priority 2014, dated 2020)
In brackets after ≈: the same amount, converted by molar mass. Read-outs that look alike come from different tables or passages of the source.

Legend:
Assay in all cases: CLSI broth dilution MIC determination
Assay type in all cases: cell-based
E. faecalis ATCC 29212 = tested on: E. faecalis ATCC 29212
[1] = tested on: P. aeruginosa HPA101-1477
S. pyogenes ATCC 19615 = tested on: S. pyogenes ATCC 19615
[2] = tested on: A. baumannii chromosomal class C
K. pneumoniae ATCC 10031 = tested on: K. pneumoniae ATCC 10031
A. baumannii ATCC 19606 = tested on: A. baumannii ATCC 19606
[3] = tested on: A. baumannii imipenem-resistant
[4] = tested on: E. faecalis Vancomycin-resistant
[5] = tested on: H. influenzae Erythro >4, Azithro 1; settings: Haemophilus influenzae; read-out: MIC
Excerpt: MIC data was collected for the novel macrolides that this platform has produced against over 21 unique strains of B. subtilis, E. coli, S. aureus, S. pneumoniae, and H. influenzae, including several multidrug-resistant strains, with a special focus on macrolide resistant mechanisms (vide supra). […] CLSI standard procedures for broth dilution MIC determination were used. […] These genotypes can be constitutive or inducible.

K. pneumoniae SHV-12 = tested on: K. pneumoniae SHV-12
A. baumannii IMP-4 = tested on: A. baumannii IMP-4
P. aeruginosa ATCC 27853 = tested on: P. aeruginosa ATCC 27853
K. pneumoniae KPC-2 = tested on: K. pneumoniae KPC-2
S. aureus erm A genotype = tested on: S. aureus erm A genotype
How it was run: (§1)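 MICs were measured by broth dilution following CLSI standard procedures. Azithromycin and solithromycin served as control macrolides in many cases. Macrolide-resistance genotypes in the panel may be constitutive or inducible.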

S. aureus MRSA: USA100 = tested on: S. aureus MRSA: USA100
How it was run: as §1

[6] = tested on: S. pneumoniae mef A genotype (second strain so labelled)
How it was run: as §1

E. coli CTX-M-14 = tested on: E. coli CTX-M-14
How it was run: as §1

S. aureus ATCC 29213 = tested on: S. aureus ATCC 29213
How it was run: as §1

K. pneumoniae TEM-10 = tested on: K. pneumoniae TEM-10
S. pneumoniae ATCC 49619 = tested on: S. pneumoniae ATCC 49619
How it was run: as §1

H. influenzae ATCC49247 = tested on: H. influenzae ATCC49247
How it was run: as §1

[7] = tested on: S. pneumoniae erm B + mef A genotype
How it was run: as §1

[8] = tested on: S. pneumoniae mef A genotype (first strain so labelled)
How it was run: as §1

E. coli NDM-1 = tested on: E. coli NDM-1
How it was run: as §1

[9] = tested on: S. pneumoniae erm B + tet(M,O) genotype; settings: Streptococcus pneumoniae
How it was run: as §1

E. coli ATCC 25922 = tested on: E. coli ATCC 25922
How it was run: as §1

E. coli TEM-1 = tested on: E. coli TEM-1
How it was run: as §1

S. aureus USA600, GISA = tested on: S. aureus USA600, GISA
How it was run: as §1

S. aureus MRSA: USA300 = tested on: S. aureus MRSA: USA300
How it was run: as §1

[10] = tested on: S. pyogenes Macrolide-resistant
[11] = Enterococcus faecalis, ATCC29212, E. faecalis ATCC 29212 (MP-24), read-out: MIC
[12] = Pseudomonas aeruginosa, HPA1011477, read-out: MIC
[13] = Streptococcus pyogenes, ATCC19615, S. pyogenes ATCC 19615 (MP-19), read-out: MIC
[14] = Acinetobacter baumannii, read-out: MIC
[15] = Klebsiella pneumoniae, ATCC10031, K. pneumoniae ATCC 10031 (MP-14), read-out: MIC
[16] = Acinetobacter baumannii, ATCC19606, A. baumannii ATCC 19606 (MP-15), read-out: MIC
[17] = Enterococcus faecalis, E. faecalis Vancomycin-resistant (UNT-039), read-out: MIC
[18] = Klebsiella pneumoniae, SHV12, read-out: MIC
[19] = Acinetobacter baumannii, IMP4, read-out: MIC
[20] = Pseudomonas aeruginosa, ATCC27853, P. aeruginosa ATCC 27853 (MP-3), read-out: MIC
[21] = Klebsiella pneumoniae, KPC2, read-out: MIC
[22] = Staphylococcus aureus, S. aureus erm A genotype (MP-620 UNT-146), read-out: MIC
[23] = Staphylococcus aureus, S. aureus MRSA: USA100 (MP-618 UNT-096), read-out: MIC
[24] = Streptococcus pneumoniae, second strain (MP-627 UNT-039), read-out: MIC
[25] = Escherichia coli, CTXM14, read-out: MIC
[26] = Staphylococcus aureus, ATCC29213, S. aureus ATCC 29213 (MP-12), read-out: MIC
[27] = Klebsiella pneumoniae, TEM10, read-out: MIC
[28] = Streptococcus pneumoniae, ATCC49619, S. pneumoniae ATCC 49619 (MP-21), read-out: MIC
[29] = Haemophilus influenzae, read-out: MIC
[30] = Streptococcus pneumoniae, first strain (MP-626 UNT-038)
[31] = Escherichia coli, NDM1, read-out: MIC
[32] = Escherichia coli, ATCC25922, E. coli ATCC 25922 (MP-4), read-out: MIC
[33] = Staphylococcus aureus, S. aureus USA600, GISA (MP-619 UNT-120), read-out: MIC
[34] = Staphylococcus aureus, S. aureus MRSA: USA300 (MP-549, msr(a)), read-out: MIC
[35] = Streptococcus pyogenes, S. pyogenes Macrolide-resistant (MP-625 UNT-014), read-out: MIC

CC[C@H]1OC(=O)[C@H](C)C(=O)[C@H](C)[C@@H](O[C@@H]2OC(C)CC(N(C)C)C2O)[C@](C)(OC)C[C@@H](C)C(=O)C[C@H]2N(CCCCn3cc(-c4cccc(N)c4)nn3)C(=O)O[C@]12C (stereo partly drawn) [FSM-21535]
MIC (E. faecalis ATCC 29212; [11]): ≤ 0.0312 µg/mL
MIC [1, 12]: > 32 µg/mL
MIC (S. pyogenes ATCC 19615; [13]): ≤ 0.0312 µg/mL
MIC [2, 14]: > 32 µg/mL
MIC (K. pneumoniae ATCC 10031; [15]): 4 µg/mL (≈ 4.92 µM)
MIC (A. baumannii ATCC 19606; [16]): > 32 µg/mL
MIC [3, 14]: > 32 µg/mL
MIC [4, 17]: > 32 µg/mL
MIC [5]: 8 µg/mL (≈ 9.84 µM)
MIC (K. pneumoniae SHV-12; [18]): > 32 µg/mL
MIC (A. baumannii IMP-4; [19]): > 32 µg/mL
MIC (P. aeruginosa ATCC 27853; [20]): > 32 µg/mL
MIC (K. pneumoniae KPC-2; [21]): > 32 µg/mL
MIC (S. aureus erm A genotype; [22]): > 32 µg/mL
MIC (S. aureus MRSA: USA100; [23]): > 32 µg/mL
MIC [6, 24]: 0.5 µg/mL (≈ 0.615 µM)
MIC (E. coli CTX-M-14; [25]): > 32 µg/mL
MIC (S. aureus ATCC 29213; [26]): 16 µg/mL (≈ 19.7 µM)
MIC (K. pneumoniae TEM-10; [27]): > 32 µg/mL
MIC (S. pneumoniae ATCC 49619; [28]): ≤ 0.0312 µg/mL
MIC (H. influenzae ATCC49247; [29]): 4 µg/mL (≈ 4.92 µM)
MIC ([7]; Streptococcus pneumoniae): 8 µg/mL (≈ 9.84 µM)
MIC [8, 30]: 0.0625 µg/mL (≈ 0.0769 µM)
MIC (E. coli NDM-1; [31]): > 32 µg/mL
MIC [9]: ≤ 0.0312 µg/mL
MIC (E. coli ATCC 25922; [32]): > 32 µg/mL
MIC (E. coli TEM-1; Escherichia coli, TEM1): > 32 µg/mL
MIC (S. aureus USA600, GISA; [33]): > 32 µg/mL
MIC (S. aureus MRSA: USA300; [34]): 32 µg/mL (≈ 39.4 µM)
MIC [10, 35]: 0.5 µg/mL (≈ 0.615 µM)

CC[C@H]1OC(=O)[C@H](C)[C@@H](O[C@H]2C[C@@](C)(OC)[C@@H](O)[C@H](C)O2)[C@H](C)[C@@H](O[C@@H]2O[C@H](C)C[C@H](N(C)C)[C@H]2O)[C@](C)(O)C[C@@H](C)CN(C)[C@H](C)[C@@H](O)[C@]1(C)O [Azithro, azithromycin, reference compound]
MIC (E. faecalis ATCC 29212; E. faecalis ATCC 29212, Gram-positive): 4 µg/mL (≈ 5.34 µM)
MIC (E. faecalis ATCC 29212; [11]): 4 µg/mL (≈ 5.34 µM)
MIC ([1]; Gram-negative): > 32 µg/mL
MIC [1, 12]: > 32 µg/mL
MIC (S. pyogenes ATCC 19615; S. pyogenes ATCC 19615, Gram-positive): < 0.0312 µg/mL
MIC (S. pyogenes ATCC 19615; [13]): < 0.0312 µg/mL
MIC [2, 14]: 32 µg/mL (≈ 42.7 µM)
MIC ([2]; Gram-negative): 32 µg/mL (≈ 42.7 µM)
MIC (K. pneumoniae ATCC 10031; K. pneumoniae ATCC 10031, Gram-negative): 4 µg/mL (≈ 5.34 µM)
MIC (K. pneumoniae ATCC 10031; [15]): 4 µg/mL (≈ 5.34 µM)
MIC (A. baumannii ATCC 19606; A. baumannii ATCC 19606, Gram-negative): 16 µg/mL (≈ 21.4 µM)
MIC (A. baumannii ATCC 19606; [16]): 16 µg/mL (≈ 21.4 µM)
MIC [3, 14]: 8 µg/mL (≈ 10.7 µM)
MIC ([3]; Gram-negative): 8 µg/mL (≈ 10.7 µM)
MIC ([4]; E. faecalis Vancomycin-resistant, Gram-positive): > 32 µg/mL
MIC [4, 17]: > 32 µg/mL
MIC (K. pneumoniae SHV-12; Gram-negative): 16 µg/mL (≈ 21.4 µM)
MIC (K. pneumoniae SHV-12; [18]): 16 µg/mL (≈ 21.4 µM)
MIC (A. baumannii IMP-4; [19]): > 32 µg/mL
MIC (A. baumannii IMP-4; Gram-negative): > 32 µg/mL
MIC (P. aeruginosa ATCC 27853; P. aeruginosa ATCC 27853, Gram-negative): > 32 µg/mL
MIC (P. aeruginosa ATCC 27853; [20]): > 32 µg/mL
MIC (K. pneumoniae KPC-2; Gram-negative): > 32 µg/mL
MIC (K. pneumoniae KPC-2; [21]): > 32 µg/mL
MIC (S. aureus erm A genotype; S. aureus erm A genotype, Gram-positive): > 32 µg/mL
MIC (S. aureus erm A genotype; [22]): > 32 µg/mL
MIC (S. aureus MRSA: USA100; S. aureus MRSA: USA100, Gram-positive): > 32 µg/mL
MIC (S. aureus MRSA: USA100; [23]): > 32 µg/mL
MIC ([6]; Gram-positive): 4 µg/mL (≈ 5.34 µM)
MIC [6, 24]: 4 µg/mL (≈ 5.34 µM)
MIC (E. coli CTX-M-14; [25]): > 32 µg/mL
MIC (E. coli CTX-M-14; Gram-negative): > 32 µg/mL
MIC (S. aureus ATCC 29213; S. aureus ATCC 29213, Gram-positive): 1 µg/mL (≈ 1.34 µM)
MIC (S. aureus ATCC 29213; [26]): 1 µg/mL (≈ 1.34 µM)
MIC (K. pneumoniae TEM-10; Gram-negative): 8 µg/mL (≈ 10.7 µM)
MIC (K. pneumoniae TEM-10; [27]): 8 µg/mL (≈ 10.7 µM)
MIC (S. pneumoniae ATCC 49619; S. pneumoniae ATCC 49619, Gram-positive): < 0.0312 µg/mL
MIC (S. pneumoniae ATCC 49619; [28]): < 0.0312 µg/mL
MIC (H. influenzae ATCC49247; Gram-negative): 0.5 µg/mL (≈ 0.668 µM)
MIC (H. influenzae ATCC49247; [29]): 0.5 µg/mL (≈ 0.668 µM)
MIC ([7]; S. pneumoniae erm B + mef A genotype, Gram-positive): > 32 µg/mL
MIC ([7]; Streptococcus pneumoniae): > 32 µg/mL
MIC [8, 30]: 0.25 µg/mL (≈ 0.334 µM)
MIC ([8]; first of two rows so labelled, Gram-positive): 0.25 µg/mL (≈ 0.334 µM)
MIC (E. coli NDM-1; [31]): > 32 µg/mL
MIC (E. coli NDM-1; Gram-negative): > 32 µg/mL
MIC [9]: < 0.0312 µg/mL
MIC (E. coli ATCC 25922; E. coli ATCC 25922, Gram-negative): 4 µg/mL (≈ 5.34 µM)
MIC (E. coli ATCC 25922; [32]): 4 µg/mL (≈ 5.34 µM)
MIC (E. coli TEM-1; E. coli TEM-1, Gram-negative): 1 µg/mL (≈ 1.34 µM)
MIC (E. coli TEM-1; Escherichia coli, TEM1): 1 µg/mL (≈ 1.34 µM)
MIC (S. aureus USA600, GISA; S. aureus USA600, GISA, Gram-positive): > 32 µg/mL
MIC (S. aureus USA600, GISA; [33]): > 32 µg/mL
MIC (S. aureus MRSA: USA300; S. aureus MRSA: USA300, Gram-positive): 32 µg/mL (≈ 42.7 µM)
MIC (S. aureus MRSA: USA300; [34]): 32 µg/mL (≈ 42.7 µM)
MIC ([10]; S. pyogenes Macrolide-resistant, Gram-positive): 2 µg/mL (≈ 2.67 µM)
MIC [10, 35]: 2 µg/mL (≈ 2.67 µM)
